In PubChem BioAssay AID1259411 (Chemical Carcinogenesis Research Information System (CCRIS), 2018):
Activity calls are given as the source filed them. No rule for the calls is given here.

Test system: rodent carcinogenicity bioassays, tumor incidence
Experiment: CCRIS carcinogenicity studies
How it was run: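 Archive of carcinogenicity, mutagenicity, tumor promotion and tumor inhibition results drawn from journals, NCI reports and other sources, expert-reviewed; covers 1985-2011 and is no longer updated.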

With `Nc1ccc(/C=C/c2ccccc2)cc1` the carcinogen call (Species: RAT, Strain/Sex: HOLTZMAN/FEMALE, Route: ORAL, Dose: 0, 0.0038% IN DIET FOR 13 WK BEGINNING AT WEANING (STUDY DURATION: 40 WK), Tumor Site: Type of Lesion: EAR DUCT GLAND: CARCINOMA) was “active; positive” and the carcinogen call (Species: RAT, Strain/Sex: HOLTZMAN/FEMALE, Route: SUBCUTANEOUS, Dose: 0. 5.3 UMOL SUSPENDED IN 0.2 ML TRICAPRYLIN 1/WK FOR 5 WK (STUDY DURATION: 10 MO), Tumor Site: Type of Lesion: MAMMARY GLAND: CARCINOMA) was “active; positive”.

For `ClC(Cl)c1ccccc1`, the carcinogen call (Species: RAT, Strain/Sex: F344/FEMALE, Route: ORAL, Dose: 0, 0.1, 0.5, 2% IN FEED FOR 104 WK (STUDY DURATION: 104 WK), Dose: 0, 0.1, 0.5, 2% IN FEED FOR 104 WK (STUDY DURATION: 104 WK)) was “inactive; negative” and the carcinogen call (Species: RAT, Strain/Sex: F344/MALE, Route: ORAL, Dose: 0, 0.1, 0.5, 2% IN FEED FOR 104 WK (STUDY DURATION: 104 WK), Dose: 0, 0.1, 0.5, 2% IN FEED FOR 104 WK (STUDY DURATION: 104 WK)) was “inactive; negative”.

For `Nc1nc(N)nc(N)n1`, the carcinogen call (Species: MOUSE, Strain/Sex: B6C3F1/FEMALE, Route: ORAL, Dose: 0, 2250, 4500 PPM IN DIET FOR 103 WK, Dose: 0, 2250, 4500 PPM IN DIET FOR 103 WK) was “inactive; negative”, the carcinogen call (Species: MOUSE, Strain/Sex: B6C3F1/MALE, Route: ORAL, Dose: 0, 2250, 4500 PPM IN DIET FOR 103 WK, Dose: 0, 2250, 4500 PPM IN DIET FOR 103 WK) was “inactive; negative” and the carcinogen call (Species: RAT, Strain/Sex: F344/FEMALE, Route: ORAL, Dose: 0, 4500, 9000 PPM IN DIET FOR 103 WK, Dose: 0, 4500, 9000 PPM IN DIET FOR 103 WK) was “inactive; negative”. For the same compound, the carcinogen call (Species: RAT, Strain/Sex: F344/MALE, Route: ORAL, Dose: 0, 0.3, 1, 3% IN DIET FOR 36 WK (STUDY DURATION: 40 WK), Dose: 0, 0.3, 1, 3% IN DIET FOR 36 WK (STUDY DURATION: 40 WK), Tumor Site: Type of Lesion: BLADDER: PAPILLOMA, CARCINOMA) was “active; positive”, the carcinogen call (Species: RAT, Strain/Sex: F344/MALE, Route: ORAL, Dose: 0, 1, 3% IN DIET CONTAINING 5% SODIUM CHLORIDE FOR 36 WK (STUDY DURATION: 40 WK), Dose: 0, 1, 3% IN DIET CONTAINING 5% SODIUM CHLORIDE FOR 36 WK (STUDY DURATION: 40 WK), Tumor Site: Type of Lesion: URAINARY BLADDER: PAPILLOMA, CARCINOMA) was “active; positive” and the carcinogen call (Species: RAT, Strain/Sex: F344/MALE, Route: ORAL, Dose: 0, 1, 3% IN DIET CONTAINING 10% SODIUM CHLORIDE FOR 36 WK (STUDY DURATION: 40 WK), Dose: 0, 1, 3% IN DIET CONTAINING 10% SODIUM CHLORIDE FOR 36 WK (STUDY DURATION: 40 WK)) was “inactive; negative”. The carcinogen call (Species: RAT, Strain/Sex: F344/MALE, Route: ORAL, Dose: 0, 1, 3% IN DIET FOR 36 WK (STUDY DURATION: 40 WK), Dose: 0, 1, 3% IN DIET FOR 36 WK (STUDY DURATION: 40 WK), Tumor Site: Type of Lesion: URINARY BLADDER: PAPILLOMA, CARCINOMA) was “active; positive” and the carcinogen call (Species: RAT, Strain/Sex: F344/MALE, Route: ORAL, Dose: 0, 2250, 4500 PPM IN DIET FOR 103 WK, Dose: 0, 2250, 4500 PPM IN DIET FOR 103 WK, Tumor Site: Type of Lesion: URINARY BLADDER: TRANSITIONAL CELL PAPILLOMA OR CARCINOMA) was “active; positive”.

In the case of `COC1=CC(=O)C[C@@H](C)[C@]12Oc1c(Cl)c(OC)cc(OC)c1C2=O`, the carcinogen call (Species: MOUSE, Strain/Sex: CD-1/MALE,FEMALE, Route: ORAL, Dose: 1% IN DIET FOR 12 TO 16 MO, Tumor Site: Type of Lesion: LIVER: HEPATOMA) is reported as “active; positive” and the carcinogen call (Species: MOUSE, Strain/Sex: ICR/MALE, Route: SUBCUTANEOUS, Dose: 0.5, 0.5, 1.0 OR 1.0 MG SUSPENDED IN TRICAPRYLIN (3 MG/ANIMAL, TOTAL DOSE) ON DAYS 1, 7, 14 AND 21 OF AGE, Tumor Site: Type of Lesion: LIVER: HEPATOMA) is reported as “active; positive”.

With `CC#N` the carcinogen call (Species: MOUSE, Strain/Sex: B6C3F1/FEMALE, Route: INHALATION, Dose: 0, 50, 100, 200 PPM 6 HR/D 5 D/WK FOR 103 WK (STUDY DURATION: 105 WK), Dose: 0, 50, 100, 200 PPM 6 HR/D 5 D/WK FOR 103 WK (STUDY DURATION: 105 WK)) was “inactive; negative”, the carcinogen call (Species: MOUSE, Strain/Sex: B6C3F1/MALE, Route: INHALATION, Dose: 0, 50, 100, 200 PPM 6 HR/D 5 D/WK FOR 103 WK (STUDY DURATION: 105 WK), Dose: 0, 50, 100, 200 PPM 6 HR/D 5 D/WK FOR 103 WK (STUDY DURATION: 105 WK)) was “inactive; negative” and the carcinogen call (Species: RAT, Strain/Sex: F344/FEMALE, Route: INHALATION, Dose: 0, 100, 200, 400 PPM 6/HR/D 5 D/WK FOR 103 WK (STUDY DURATION: 105 WK), Dose: 0, 100, 200, 400 PPM 6/HR/D 5 D/WK FOR 103 WK (STUDY DURATION: 105 WK)) was “inactive; negative”. For the same compound, the carcinogen call (Species: RAT, Strain/Sex: F344/MALE, Route: INHALATION, Dose: 0, 100, 200, 400 PPM 6/HR/D 5 D/WK FOR 103 WK (STUDY DURATION: 105 WK), Dose: 0, 100, 200, 400 PPM 6/HR/D 5 D/WK FOR 103 WK (STUDY DURATION: 105 WK), Tumor Site: Type of Lesion: LIVER: HEPATOCELLULAR ADENOMA, HEPATOCELLULAR CARCINOMA, HEPATOCELLULAR ADENOMA OR CARCINOMA) was “equivocal”.

With `Cc1c([N+](=O)[O-])c(C)c([N+](=O)[O-])c(C(C)(C)C)c1[N+](=O)[O-]` the carcinogen call (Species: MOUSE, Strain/Sex: B6C3F1/FEMALE, Route: ORAL, Dose: 0, 0.075, 0.15% IN DIET FOR 80 WK (STUDY DURATION: 80 WK), Dose: 0, 0.075, 0.15% IN DIET FOR 80 WK (STUDY DURATION: 80 WK), Tumor Site: Type of Lesion: LIVER: ADENOMA) was “active; positive” and the carcinogen call (Species: MOUSE, Strain/Sex: B6C3F1/MALE, Route: ORAL, Dose: 0, 0.075, 0.15% IN DIET FOR 80 WK (STUDY DURATION: 80 WK), Dose: 0, 0.075, 0.15% IN DIET FOR 80 WK (STUDY DURATION: 80 WK), Tumor Site: Type of Lesion: LIVER: ADENOMA, CARCINOMA, HARDERIAN GLAND: ADENOMA) was “active; positive”.

With `O=[N+]([O-])c1ccc2c3c(cccc13)-c1ccccc1-2` the carcinogen call (Species: MOUSE, Strain/Sex: B6C3F1/MALE, Route: INTRAPERITONEAL, Dose: 0, 400 NMOL IN 35 µL DMSO ON DAYS 1 (1/7 TOTAL DOSE), 8 (2/7 TOTAL DOSE), AND 15 (4/7 TOTAL DOSE) AFTER BIRTH (STUDY DUR) was “inactive; negative”, the carcinogen call (Species: MOUSE, Strain/Sex: ICR/FEMALE, Route: INTRAPERITONEAL, Dose: 0, 63 UG TOTAL DOSE (9 UG/5 µL, 18 UG/10 µL, 36 UG/20 µL DMSO ON DAYS 1, 8 AND 15), 315 UG TOTAL DOSE (45 UG/5 µL, 90 UG, Dose: 0, 63 UG TOTAL DOSE (9 UG/5 µL, 18 UG/10 µL, 36 UG/20 µL DMSO ON DAYS 1, 8 AND 15), 315 UG TOTAL DOSE (45 UG/5 µL, 90 UG, Tumor Site: Type of Lesion: LUNG: ADENOMA) was “active; positive” and the carcinogen call (Species: MOUSE, Strain/Sex: ICR/MALE, Route: INTRAPERITONEAL, Dose: 0, 63 UG TOTAL DOSE (9 UG/5 µL, 18 UG/10 µL, 36 UG/20 µL DMSO ON DAYS 1, 8 AND 15), 315 UG TOTAL DOSE (45 UG/5 µL, 90 UG, Dose: 0, 63 UG TOTAL DOSE (9 UG/5 µL, 18 UG/10 µL, 36 UG/20 µL DMSO ON DAYS 1, 8 AND 15), 315 UG TOTAL DOSE (45 UG/5 µL, 90 UG, Tumor Site: Type of Lesion: LUNG: ADENOMA) was “active; positive”. The carcinogen call (Species: RAT, Strain/Sex: F344/DUCRJ FISCHER/MALE, Route: SUBCUTANEOUS, Dose: 2 MG TWICE WEEKLY FOR A TOTAL OF 15 INJECTIONS (STUDY DURATION: 52 WK), Tumor Site: Type of Lesion: INTEGUMENTARY SYSTEM: FIBROUS HISTIOCYTOMAS) was “active; positive”, the carcinogen call (Species: RAT, Strain/Sex: F344/MALE, Route: LUNG IMPLANT, Dose: 0, 1000 UG SUSPENDED IN BEESWAX/TRICAPRYLIN INTO LOWER LEFT LUNG ONCE (STUDY DURATION: 100 WK)) was “inactive; negative” and the carcinogen call (Species: RAT, Strain/Sex: F344/MALE, Route: PULMONARY IMPLANT, Dose: 0, 1000 UG IN 50 µL BEESWAX/TRICAPRYLIN IMPLANTED FOR UP TO 100 WK (STUDY DURATION: 100 WK)) was “inactive; negative”.
